# Laboratory results reported in patent US20250122218A1, “MODULATORS OF CYSTIC FIBROSIS TRANSMEMBRANE CONDUCTANCE REGULATOR” (Vertex Pharmaceuticals Incorporated, priority 2022, published 2025).
# pEC50: −log10 of the molar value.
# Target: T1, CFTR in F508del/MF-HBE cells (Homo sapiens, UniProt P13569, DEL508-508)
# T1 construct: human bronchial epithelial (HBE) cells derived from CF subjects heterozygous for F508del and a minimal function CFTR mutation; endogenous in cells; host or cells: primary human bronchial epithelial cells from CF subjects (F508del/MF-HBE)
# T1 sequence (P13569 with tags, fused parts or gaps DEL508-508): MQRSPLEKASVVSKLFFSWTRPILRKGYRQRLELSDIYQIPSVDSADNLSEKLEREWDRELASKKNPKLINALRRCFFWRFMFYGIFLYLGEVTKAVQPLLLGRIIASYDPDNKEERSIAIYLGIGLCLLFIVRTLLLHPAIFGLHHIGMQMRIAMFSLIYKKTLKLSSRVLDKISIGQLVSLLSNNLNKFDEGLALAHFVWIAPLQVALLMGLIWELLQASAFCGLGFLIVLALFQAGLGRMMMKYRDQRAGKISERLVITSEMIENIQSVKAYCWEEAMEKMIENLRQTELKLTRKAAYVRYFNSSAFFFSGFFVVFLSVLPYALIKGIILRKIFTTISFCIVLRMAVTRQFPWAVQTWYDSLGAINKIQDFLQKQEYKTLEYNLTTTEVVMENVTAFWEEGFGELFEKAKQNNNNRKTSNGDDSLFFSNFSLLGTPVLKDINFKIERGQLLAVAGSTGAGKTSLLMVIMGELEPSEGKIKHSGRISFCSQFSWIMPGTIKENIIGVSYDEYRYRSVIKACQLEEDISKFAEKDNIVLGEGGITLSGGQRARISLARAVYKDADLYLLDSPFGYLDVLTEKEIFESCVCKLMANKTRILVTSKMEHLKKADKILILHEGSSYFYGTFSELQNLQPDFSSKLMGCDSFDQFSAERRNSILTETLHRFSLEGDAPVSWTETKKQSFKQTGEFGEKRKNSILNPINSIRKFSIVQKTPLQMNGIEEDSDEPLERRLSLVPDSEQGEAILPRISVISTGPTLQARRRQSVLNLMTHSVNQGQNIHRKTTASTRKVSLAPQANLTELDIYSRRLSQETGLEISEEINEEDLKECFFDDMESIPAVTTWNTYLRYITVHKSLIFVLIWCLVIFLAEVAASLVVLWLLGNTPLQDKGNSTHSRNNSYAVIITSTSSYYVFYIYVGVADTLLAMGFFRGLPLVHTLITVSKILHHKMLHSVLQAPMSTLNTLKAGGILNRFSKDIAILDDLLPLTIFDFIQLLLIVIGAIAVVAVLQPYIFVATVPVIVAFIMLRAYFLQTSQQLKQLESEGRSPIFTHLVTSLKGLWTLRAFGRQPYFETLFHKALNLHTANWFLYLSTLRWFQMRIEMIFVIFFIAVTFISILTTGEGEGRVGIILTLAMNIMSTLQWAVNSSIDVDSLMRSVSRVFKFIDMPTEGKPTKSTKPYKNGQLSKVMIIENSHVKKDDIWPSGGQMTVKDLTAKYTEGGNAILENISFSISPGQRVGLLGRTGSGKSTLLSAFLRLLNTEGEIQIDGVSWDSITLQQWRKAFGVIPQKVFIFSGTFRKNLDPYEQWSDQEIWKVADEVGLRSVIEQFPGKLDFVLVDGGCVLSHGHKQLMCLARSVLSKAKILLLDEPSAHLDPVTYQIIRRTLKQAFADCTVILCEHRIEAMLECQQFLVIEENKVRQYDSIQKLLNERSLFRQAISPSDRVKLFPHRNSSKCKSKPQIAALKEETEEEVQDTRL
# Test: Ussing chamber assay of CFTR-mediated short-circuit currents (identification of potentiator compounds)
# Format: cell-based
# Settings: potentiator incubated 18-24 hours at 37° C. in combination with 10 μM corrector, in the presence of 20% human serum, CFTR-mediated ISC
# Experimental: Ussing chamber experiments were performed using human bronchial epithelial (HBE) cells derived from CF subjects heterozygous for F508del and a minimal function CFTR mutation (F508del/MF-HBE) and cultured as previously described (Neuberger T, Burton B, Clark H, Van Goor F; Methods Mol. Biol. 2011:741:39-54). After four days the apical media was removed, and the cells were grown at an air liquid interface for >14 days prior to use.
# To isolate the CFTR-mediated short-circuit (ISC) current, F508del/MF-HBE grown on Costar® Snapwell™ cell culture inserts were mounted in an Ussing chamber and the transepithelial ISC was measured under voltage-clamp recording conditions (Vhold=0 mV) at 37° C. The basolateral solution contained (in mM) 145 NaCl, 0.83 K2HPO4, 3.3 KH2PO4, 1.2 MgCl2, 1.2 CaCl2), 10 Glucose, 10 HEPES (pH adjusted to 7.4 with NaOH) and the apical solution contained (in mM) 145 NaGluconate, 1.2 MgCl2, 1.2 CaCl2), 10 glucose, 10 HEPES (pH adjusted to 7.4 with NaOH) and 30 μM amiloride to block the epithelial sodium channel. Forskolin (20 μM) was added to the apical surface to activate CFTR, followed by apical addition of a CFTR inhibitor cocktail consisting of BPO, GlyH-101 and CFTR inhibitor 172 (each at 20 μM final assay concentration) to specifically isolate CFTR currents. The CFTR-mediated ISC (μA/cm^2) for each condition was determined from the peak forskolin response to the steady-state current following inhibition.
# The activity of the CFTR potentiator compounds on the CFTR-mediated ISC was determined in Ussing chamber studies as described above. The F508del/MF-HBE cell cultures were incubated with the potentiator compounds at a range of concentrations in combination with 10 μM (14S)-8-[3-(2-{dispiro[2.0.2.1]heptan-7-yl}ethoxy)-1H-pyrazol-1-yl]-12,12-dimethyl-2λ^6-thia-3,9,11,18,23-pentaazatetracyclo[17.3.1.111,14.05,10]tetracosa-1(22),5,7,9,19(23),20-hexaene-2,2,4-trione for 18-24 hours at 37° C. and in the presence of 20% human serum. The concentration of potentiator compounds and (14S)-8-[3-(2-{dispiro[2.0.2.1]heptan-7-yl}ethoxy)-1H-pyrazol-1-yl]-12,12-dimethyl-2λ^6-thia-3,9,11,18,23-pentaazatetracyclo[17.3.1.111,14.05,10]tetracosa-1(22),5,7,9,19(23),20-hexaene-2,2,4-trione used during the 18-24 hours incubations was kept constant throughout the Ussing chamber measurement of the CFTR-mediated ISC to ensure compounds were present throughout the entire experiment. The efficacy and potency of the putative F508del potentiators was compared to that of the known potentiator, ivacaftor (N-[2,4-bis(1,1-dimethylethyl)-5-hydroxyphenyl]-1,4-dihydro-4-oxoquinoline-3-carboxamide).
row,Compound,pEC50
1,"17-amino-12-[(3- cyclobutyl-5-fluoro- phenyl)methyl]-6- hydroxy-6,15- bis(trifluoromethyl)- 8,19-dioxa-3,4,12,18- tetrazatricyclo [12.3.1.12,5] nonadeca- 1(18),2,4,14,16- pentaen-13-one [Compound 263]",> 6.30
2,"17-amino-12-[(3-tert- butylphenyl)methyl]- 6-hydroxy-6,15- bis(trifluoromethyl)- 8,19-dioxa-3,4,12,18- tetrazatricyclo [12.3.1.12,5] nonadeca- 1(18),2,4,14,16- pentaen-13-one [Compound 261]",> 6.30
3,"Nc1cc(C(F)(F)F)c2nc1-c1nnc(o1)[C@@](O)(C(F)(F)F)CCCCCN(CC1CCCCO1)C2=O (mixture of isomers) [Compound 130, (6R)-17-amino-6-hydroxy-12-(tetrahydropyran-2-ylmethyl)-6,15-bis (trifluoromethyl)-19-oxa-3,4,12,18-tetrazatricyclo [12.3.1.12,5] nonadeca-1(18),2,4,14,1 6-pentaen-13-one]",> 6.30
4,"Nc1cc(C(F)(F)F)c2nc1-c1nnc(o1)[C@@](O)(C(F)(F)F)CCCCCN(CC1CCCOC1)C2=O (mixture of isomers) [Compound 131, (6R)-17-Amino-6-hydroxy-12-(tetrahydropyran-3-ylmethyl)-6,15-bis (trifluoromethyl)-19-oxa-3,4,12,18-tetrazatricyclo [12.3.1.12,5] nonadeca-1(18),2,4,14,1 6-pentaen-13-one]",> 6.30
5,"Nc1cc(C(F)(F)F)c2nc1-c1nnc(o1)[C@@](O)(C(F)(F)F)CCCCCN(C1CCCOC1)C2=O (mixture of isomers) [Compound 133, (6R)-17-Amino-6-hydroxy-12-tetrahydropyran-3-yl-6,15-bis (trifluoromethyl)-19-oxa-3,4,12,18-tetrazatricyclo [12.3.1.12,5] nonadeca-1(18),2,4,14,1 6-pentaen-13-one]",> 6.30
6,"Nc1cc(C(F)(F)F)c2nc1-c1nnc(o1)C(O)(C(F)(F)F)c1cc(ccc1F)CCCN(C1CC(F)(F)C1)C2=O (racemic) [Compound 201, 20-amino-15-(3,3-difluorocyclobutyl)-8-fluoro-6-hydroxy-6,18-bis(trifluoromethyl)-23-oxa-3,4,15,21-tetraazatetracyclo [15.3.1.12,5.17,11] tricosa 1(21),2,4,7(22),8,10, 17,19-octaen-16-one]",> 6.30
7,"Nc1cc(C(F)(F)F)c2nc1-c1nnc(o1)C(O)(C(F)(F)F)CCCCCCC2 (single isomer, unassigned) [Compound 2, 17-amino-6,15-bis(trifluoromethyl)-19-oxa-3,4,18-triazatricyclo[12.3.1.12,5]nonadeca-1(18),2,4,14,16-pentaen-6-ol]",> 6.30
8,"Nc1cc(C(F)(F)F)c2nc1-c1nnc(o1)C(O)(C(F)(F)F)CCCCCc1ccccc1-2 (single isomer, unassigned) [Compound 4, 21-amino-6,19-bis(trifluoromethyl)-23-oxa-3,4,22-triazatetracyclo[16.3.1.12,5.012,17]tricosa-1(22),2,4,12,14,16,18,20-octaen-6-ol]",> 6.30
9,"Nc1cc(C(F)(F)F)c2nc1-c1nnc(o1)C(O)(C(F)(F)F)CCCCCc1ccccc1-2 (single isomer, unassigned) [Compound 5, 21-amino-6,19-bis(trifluoromethyl)-23-oxa-3,4,22-triazatetracyclo[16.3.1.12,5.012,17]tricosa-1(22),2,4,12,14,16,18,20-octaen-6-ol]",< 6.00
10,"Nc1cc(C(F)(F)F)c2nc1-c1nnc(o1)[C@](O)(C(F)(F)F)CCCCCCC2=O (single isomer, unassigned) [Compound 7]",< 6.00
11,"Nc1cc(C(F)(F)F)c2nc1-c1nnc(o1)C(O)(C(F)(F)F)CCCCCCC2O (single isomer, unassigned) [Compound 8, 17-amino-6,15-bis(trifluoromethyl)-19-oxa-3,4,18-triazatricyclo[12.3.1.12,5]nonadeca-1(18),2,4,14,16-pentaene-6,13-diol]",> 6.30
12,"Nc1cc(C(F)(F)F)c2nc1-c1nnc(o1)C(O)(C(F)(F)F)CCCCCCC2O (single isomer, unassigned) [Compound 9, 17-amino-6,15-bis(trifluoromethyl)-19-oxa-3,4,18-triazatricyclo[12.3.1.12,5]nonadeca-1(18),2,4,14,16-pentaene-6,13-diol]",< 6.00
13,"Nc1cc(C(F)(F)F)c2nc1-c1nnc(o1)C(O)(C(F)(F)F)CCCCCCC2O (single isomer, unassigned) [Compound 10, 17-amino-6,15-bis(trifluoromethyl)-19-oxa-3,4,18-triazatricyclo[12.3.1.12,5]nonadeca-1(18),2,4,14,16-pentaene-6,13-diol]",> 6.30
14,"Nc1cc(C(F)(F)F)c2nc1-c1nnc(o1)C(O)(C(F)(F)F)CCCCCCC2O (single isomer, unassigned) [Compound 11, 17-amino-6,15-bis(trifluoromethyl)-19-oxa-3,4,18-triazatricyclo[12.3.1.12,5]nonadeca-1(18),2,4,14,16-pentaene-6,13-diol]",< 6.00
15,"COC1CCCCCCC(O)(C(F)(F)F)C2=NN=C(O2)c2nc1c(C(F)(F)F)cc2N (single isomer, unassigned) [Compound 12, 17-Amino-13-methoxy-6,15-bis(trifluoromethyl)-19-oxa-3,4,18-triazatricyclo[12.3.1.12,5]nonadeca-1(18),2,4,14,16-pentaen-6-ol]",> 6.30
16,"COC1CCCCCCC(O)(C(F)(F)F)C2=NN=C(O2)c2nc1c(C(F)(F)F)cc2N (single isomer, unassigned) [Compound 13, 17-amino-13-methoxy-6,15-bis(trifluoromethyl)-19-oxa-3,4,18-triazatricyclo[12.3.1.12,5]nonadeca-1(18),2,4,14,16-pentaen-6-ol]",> 6.30
17,"COC1CCCCCCC(O)(C(F)(F)F)C2=NN=C(O2)c2nc1c(C(F)(F)F)cc2N (single isomer, unassigned) [Compound 14, 17-Amino-13-methoxy-6,15-bis(trifluoromethyl)-19-oxa-3,4,18-triazatricyclo[12.3.1.12,5]nonadeca-1(18),2,4,14,16-pentaen-6-ol]",> 6.30
18,"COC1CCCCCCC(O)(C(F)(F)F)C2=NN=C(O2)c2nc1c(C(F)(F)F)cc2N (single isomer, unassigned) [Compound 15, 17-amino-13-methoxy-6,15-bis(trifluoromethyl)-19-oxa-3,4,18-triazatricyclo[12.3.1.12,5]nonadeca-1(18),2,4,14,16-pentaen-6-ol]",6.00 to 6.30
19,"CC1CCCCCCC(O)(C(F)(F)F)C2=NN=C(O2)c2nc1c(C(F)(F)F)cc2N (single isomer, unassigned) [Compound 16, 17-Amino-13-methyl-6,15-bis(trifluoromethyl)-19-oxa-3,4,18-triazatricyclo[12.3.1.12,5]nonadeca-1(18),2,4,14,16-pentaen-6-ol]",> 6.30
20,"CC1CCCCCCC(O)(C(F)(F)F)C2=NN=C(O2)c2nc1c(C(F)(F)F)cc2N (single isomer, unassigned) [Compound 17, 17-amino-13-methyl-6,15-bis(trifluoromethyl)-19-oxa-3,4,18-triazatricyclo[12.3.1.12,5]nonadeca-1(18),2,4,14,16-pentaen-6-ol]",> 6.30
21,"CC1CCCCCCC(O)(C(F)(F)F)C2=NN=C(O2)c2nc1c(C(F)(F)F)cc2N (single isomer, unassigned) [Compound 18, 17-amino-13-methyl-6,15-bis(trifluoromethyl)-19-oxa-3,4,18-triazatricyclo[12.3.1.12,5]nonadeca-1(18),2,4,14,16-pentaen-6-ol]",> 6.30
22,"CC1CCCCCCC(O)(C(F)(F)F)C2=NN=C(O2)c2nc1c(C(F)(F)F)cc2N (single isomer, unassigned) [Compound 19, 17-amino-13-methyl-6,15-bis(trifluoromethyl)-19-oxa-3,4,18-triazatricyclo[12.3.1.12,5]nonadeca-1(18),2,4,14,16-pentaen-6-ol]",> 6.30
